Results as given in ChEMBL document CHEMBL1201862, “PubChem BioAssay data set” (2004).
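Compound exposure: 48 hours, 5 concentrations, 96-well plates. At the GI50, growth is halved.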 Active and inactive are the calls of the source. Cut-off read from the data, not from the text of the source: active = GI50 up to about 1.1 µM and inactive = higher.

Columns and labels:
Assay in all cases: NCI tumour cell line growth inhibition, 48 h
HOP-62 = tested on: HOP-62
Malme-3M = tested on: Malme-3M
UACC-257 = tested on: UACC-257
KM12 = tested on: KM12
DU-145 = tested on: DU-145
SN12C = tested on: SN12C
SK-MEL-2 = tested on: SK-MEL-2
T47D = tested on: T47D
NCI-H23 = tested on: NCI-H23
SR = tested on: SR
SW-620 = tested on: SW-620
MCF7 = tested on: MCF7
RXF 393 = tested on: RXF 393
RPMI-8226 = tested on: RPMI-8226
UACC-62 = tested on: UACC-62
BT-549 = tested on: BT-549
SK-OV-3 = tested on: SK-OV-3
SK-MEL-5 = tested on: SK-MEL-5
OVCAR-8 = tested on: OVCAR-8
MDA-MB-435 = tested on: MDA-MB-435
COLO 205 = tested on: COLO 205
OVCAR-3 = tested on: OVCAR-3
MOLT-4 = tested on: MOLT-4
LOX IMVI = tested on: LOX IMVI
U-251 = tested on: U-251
NCI-H460 = tested on: NCI-H460
HCT-15 = tested on: HCT-15
UO-31 = tested on: UO-31
NCI-H522 = tested on: NCI-H522
IGROV-1 = tested on: IGROV-1
OVCAR-4 = tested on: OVCAR-4
CAKI-1 = tested on: CAKI-1
SNB-19 = tested on: SNB-19
OVCAR-5 = tested on: OVCAR-5
SF-295 = tested on: SF-295
HCT-116 = tested on: HCT-116
NCI/ADR-RES = tested on: NCI/ADR-RES
HCC 2998 = tested on: HCC 2998
ACHN = tested on: ACHN
HOP-92 = tested on: HOP-92
MDA-N = tested on: MDA-N
A549 = tested on: A549
SF-268 = tested on: SF-268
SNB-75 = tested on: SNB-75
TK-10 = tested on: TK-10
SF-539 = tested on: SF-539
PC-3 = tested on: PC-3
EKVX = tested on: EKVX
HT-29 = tested on: HT-29
786-0 = tested on: 786-0
M14 = tested on: M14
MDA-MB-231 = tested on: MDA-MB-231
K562 = tested on: K562
NCI-H226 = tested on: NCI-H226
SK-MEL-28 = tested on: SK-MEL-28
A498 = tested on: A498
Hs-578T = tested on: Hs-578T
HL-60 = tested on: HL-60
CCRF-CEM = tested on: CCRF-CEM

In the case of C[C@@]12C=CC3C/C(=N\C(N)=S)C=C(CCCC4OCCO4)[C@]3(CC1)C2 (some centres not stated), the GI50 (HOP-62) is reported as 29.5 µM (inactive), the GI50 (Malme-3M) is reported as 18.4 µM (inactive) and the GI50 (UACC-257) is reported as 18.8 µM (inactive). For the same compound, the GI50 (KM12) was 23.6 µM (inactive), the GI50 (DU-145) was 21 µM (inactive) and the GI50 (SN12C) was 16.5 µM (inactive). For the same compound, the GI50 (SK-MEL-2) was 16.9 µM (inactive), the GI50 (T47D) was 22.1 µM (inactive) and the GI50 (NCI-H23) was 21.3 µM (inactive). For the same compound, the GI50 (SR) was 15.1 µM (inactive), the GI50 (SW-620) was 20.8 µM (inactive) and the GI50 (MCF7) was 10.8 µM (inactive). The GI50 (RXF 393) was 16 µM (inactive), the GI50 (RPMI-8226) was 16.2 µM (inactive) and the GI50 (UACC-62) was 16.2 µM (inactive). The GI50 (BT-549) was 16.9 µM (inactive), the GI50 (SK-OV-3) was 49.2 µM (inactive) and the GI50 (SK-MEL-5) was 12.4 µM (inactive). The GI50 (OVCAR-8) was 21.8 µM (inactive), the GI50 (MDA-MB-435) was 16.9 µM (inactive) and the GI50 (COLO 205) was 13.2 µM (inactive). The GI50 (OVCAR-3) was 15.2 µM (inactive), the GI50 (MOLT-4) was 9.44 µM (inactive) and the GI50 (LOX IMVI) was 17.4 µM (inactive). The GI50 (U-251) was 20.5 µM (inactive), the GI50 (NCI-H460) was 15.6 µM (inactive) and the GI50 (HCT-15) was 17.7 µM. For the same compound, the GI50 (UO-31) was 17.6 µM (inactive), the GI50 (NCI-H522) was 6.87 µM (inactive) and the GI50 (IGROV-1) was 14.8 µM (inactive). The GI50 (OVCAR-4) was 18.4 µM (inactive), the GI50 (CAKI-1) was 25.1 µM (inactive) and the GI50 (SNB-19) was 34.5 µM (inactive). For the same compound, the GI50 (OVCAR-5) was 15.7 µM (inactive), the GI50 (SF-295) was 23.1 µM (inactive) and the GI50 (HCT-116) was 13.7 µM (inactive). For the same compound, the GI50 (NCI/ADR-RES) was 15.8 µM (inactive), the GI50 (HCC 2998) was 15.1 µM (inactive) and the GI50 (ACHN) was 28.6 µM (inactive). The GI50 (HOP-92) was 34.4 µM (inactive), the GI50 (MDA-N) was 16 µM (inactive) and the GI50 (A549) was 21.1 µM (inactive). The GI50 (SF-268) was 29.4 µM (inactive), the GI50 (SNB-75) was 28.6 µM (inactive) and the GI50 (TK-10) was 20.6 µM (inactive). For the same compound, the GI50 (SF-539) was 17.9 µM (inactive), the GI50 (PC-3) was 17.4 µM (inactive) and the GI50 (EKVX) was 10.3 µM (inactive). For the same compound, the GI50 (HT-29) was 11.2 µM (inactive), the GI50 (786-0) was 19.3 µM (inactive) and the GI50 (M14) was 17.2 µM (inactive). For the same compound, the GI50 (MDA-MB-231) was 20.3 µM (inactive), the GI50 (K562) was 17.9 µM (inactive) and the GI50 (NCI-H226) was 23.3 µM (inactive). The GI50 (SK-MEL-28) was 18 µM (inactive), the GI50 (A498) was 15.5 µM (inactive) and the GI50 (Hs-578T) was 28.5 µM (inactive).

With COC1CC(OC2C(C)OC(OC3C(C)OC(OC4C(C)OC(O[C@H]5CC[C@@]6(C)C(=CC[C@]7(O)[C@@H]6C[C@@H](OC(=O)/C=C(\C)C(C)C)[C@@]6(C)[C@]7(O)CC[C@@]6(O)C(C)=O)C5)CC4OC)CC3OC)CC2OC)OC(C)C1O (some centres not stated) the GI50 (HOP-62) was > 12.5 µM (inactive), the GI50 (Malme-3M) was > 12.5 µM (inactive) and the GI50 (UACC-257) was > 12.5 µM (inactive). The GI50 (KM12) was > 12.5 µM (inactive), the GI50 (DU-145) was > 12.5 µM (inactive) and the GI50 (SN12C) was > 12.5 µM (inactive). For the same compound, the GI50 (SK-MEL-2) was > 12.5 µM (inactive), the GI50 (T47D) was > 12.5 µM (inactive) and the GI50 (NCI-H23) was > 12.5 µM (inactive). For the same compound, the GI50 (SR) was > 12.5 µM (inactive), the GI50 (SW-620) was > 12.5 µM (inactive) and the GI50 (MCF7) was > 12.5 µM (inactive). The GI50 (RPMI-8226) was 4.02 µM (inactive), the GI50 (UACC-62) was > 12.5 µM (inactive) and the GI50 (BT-549) was > 12.5 µM (inactive). For the same compound, the GI50 (SK-OV-3) was > 12.5 µM (inactive), the GI50 (SK-MEL-5) was 11.2 µM (inactive) and the GI50 (OVCAR-8) was > 12.5 µM (inactive). The GI50 (MDA-MB-435) was > 12.5 µM (inactive), the GI50 (COLO 205) was > 12.5 µM (inactive) and the GI50 (OVCAR-3) was > 12.5 µM (inactive). For the same compound, the GI50 (MOLT-4) was > 12.5 µM (inactive), the GI50 (LOX IMVI) was > 12.5 µM (inactive) and the GI50 (U-251) was > 12.5 µM (inactive). For the same compound, the GI50 (HCT-15) was greater than 12.5 µM, the GI50 (UO-31) was 4.85 µM (inactive) and the GI50 (NCI-H522) was > 12.5 µM (inactive). For the same compound, the GI50 (IGROV-1) was > 12.5 µM (inactive), the GI50 (OVCAR-4) was > 12.5 µM (inactive) and the GI50 (CAKI-1) was > 12.5 µM (inactive). The GI50 (SNB-19) was > 12.5 µM (inactive), the GI50 (OVCAR-5) was > 12.5 µM (inactive) and the GI50 (SF-295) was > 12.5 µM (inactive). For the same compound, the GI50 (HCT-116) was > 12.5 µM (inactive), the GI50 (HL-60) was 5.11 µM (inactive) and the GI50 (NCI/ADR-RES) was > 12.5 µM (inactive). For the same compound, the GI50 (HCC 2998) was > 12.5 µM (inactive), the GI50 (ACHN) was > 12.5 µM (inactive) and the GI50 (HOP-92) was > 12.5 µM (inactive). The GI50 (MDA-N) was > 12.5 µM (inactive), the GI50 (A549) was > 12.5 µM (inactive) and the GI50 (SF-268) was > 12.5 µM (inactive). The GI50 (SNB-75) was > 12.5 µM (inactive), the GI50 (CCRF-CEM) was > 12.5 µM (inactive) and the GI50 (TK-10) was > 12.5 µM (inactive). The GI50 (SF-539) was > 12.5 µM (inactive), the GI50 (PC-3) was > 12.5 µM (inactive) and the GI50 (EKVX) was > 12.5 µM (inactive). For the same compound, the GI50 (HT-29) was > 12.5 µM (inactive), the GI50 (786-0) was > 12.5 µM (inactive) and the GI50 (M14) was > 12.5 µM (inactive). For the same compound, the GI50 (MDA-MB-231) was 11.9 µM (inactive), the GI50 (K562) was 10.9 µM (inactive) and the GI50 (NCI-H226) was > 12.5 µM (inactive). The GI50 (Hs-578T) was > 12.5 µM (inactive).
